From ChEMBL document CHEMBL3856276, “Design, Synthesis, and Biological Evaluation of Novel Tetrahydroprotoberberine Derivatives (THPBs) as Selective α1A-Adrenoceptor Antagonists” (J Med Chem, 2016) come the findings set out here.

A value given as a limit tells only on which side of the number the result lay.

The subject of one data set is Rattus norvegicus. The experiment in a line: Increase in voided volume in po dosed Sprague-Dawley rat benign prostatic hyperplasia model administered 20 mins followed by distilled watering loading measured for 2 hrs. Format: functional. As to conditions: read-out: MED.
The target in data set [1] is T1, Alpha-1B adrenergic receptor (Homo sapiens, UniProt P35368).
T1 sequence (P35368 whole entry): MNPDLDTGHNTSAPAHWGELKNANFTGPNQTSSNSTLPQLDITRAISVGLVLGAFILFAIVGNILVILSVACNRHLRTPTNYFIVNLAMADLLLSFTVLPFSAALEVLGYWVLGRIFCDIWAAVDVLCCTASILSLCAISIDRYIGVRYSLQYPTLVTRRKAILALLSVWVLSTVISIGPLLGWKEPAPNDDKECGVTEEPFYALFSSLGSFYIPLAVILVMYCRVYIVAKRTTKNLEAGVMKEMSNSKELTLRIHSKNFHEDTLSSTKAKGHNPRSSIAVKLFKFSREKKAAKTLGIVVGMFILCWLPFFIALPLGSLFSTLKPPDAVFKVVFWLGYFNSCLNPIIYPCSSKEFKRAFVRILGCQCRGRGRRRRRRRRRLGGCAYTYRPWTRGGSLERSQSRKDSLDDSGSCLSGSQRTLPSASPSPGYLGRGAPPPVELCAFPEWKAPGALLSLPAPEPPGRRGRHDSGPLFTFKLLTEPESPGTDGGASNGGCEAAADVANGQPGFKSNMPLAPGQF
Description: Antagonist activity at human full-length N-terminal SNAP-tagged alpha1B adrenoceptor expressed in HEK293 cells assessed as inhibition of agonist-induced calcium mobilization preincubated for 10 mins followed by agonist addition by fluo-4 AM dye-based assay

Data set [2] can be described thus: Oral bioavailability in rat at 20 mg/kg, ig via gavage. Format: ADME, organism-based. The note with it: in vivo.
In data set [3] the test system is Mus musculus. The experiment in a line: Acute toxicity in Kunming mouse assessed as mortality at 500 mg/kg, po administered as single dose measured over 7 days. Format: organism-based. The note with it: in vivo, 168 h.
Data set [4] in a line: Tmax in rat at 10 mg/kg, iv. Format: ADME, organism-based. As to conditions: in vivo.
The nature of data set [5]: Cmax in rat at 10 mg/kg, iv. The format is ADME, organism-based. More on the design: dose 10 mg/kg, route intravenous. As to conditions: in vivo.
A short description of data set [6]: Selectivity ratio of IC50 for alpha1B adrenoceptor in Sprague-Dawley rat aorta to IC50 for alpha1A adrenoceptor in Sprague-Dawley rat urethra.
Data set [7] deals with Voltage-gated inwardly rectifying potassium channel KCNH2 (Homo sapiens, UniProt Q12809). The experiment in a line: Inhibition of human ERG.
For data set [8], the species on record is Homo sapiens. Kind of data set: Selectivity ratio of IC50 for human full-length N-terminal SNAP-tagged alpha1B adrenoceptor to IC50 for human full-length N-terminal SNAP-tagged alpha1A adrenoceptor.
Data set [9] in a line: Half life in rat at 10 mg/kg, iv. The format is ADME, organism-based. As to conditions: in vivo.
The species entered for data set [10] is Homo sapiens. The experiment in a line: Selectivity ratio of IC50 for human full-length N-terminal SNAP-tagged alpha1D adrenoceptor to IC50 for human full-length N-terminal SNAP-tagged alpha1A adrenoceptor.
Data set [11] can be described thus: AUC (0 to t) in rat at 20 mg/kg, ig via oral gavage. The format is ADME, organism-based. The note with it: in vivo.
For data set [12], the system named is Mus musculus. Kind of data set: Acute toxicity in Kunming mouse assessed as effect on fur colour at 500 mg/kg, po administered as single dose measured over 7 days. Format: organism-based. The note with it: in vivo, 168 h.
Data set [13] deals with T2, Alpha-1D adrenergic receptor (Homo sapiens, UniProt P25100).
T2 sequence (P25100 whole entry): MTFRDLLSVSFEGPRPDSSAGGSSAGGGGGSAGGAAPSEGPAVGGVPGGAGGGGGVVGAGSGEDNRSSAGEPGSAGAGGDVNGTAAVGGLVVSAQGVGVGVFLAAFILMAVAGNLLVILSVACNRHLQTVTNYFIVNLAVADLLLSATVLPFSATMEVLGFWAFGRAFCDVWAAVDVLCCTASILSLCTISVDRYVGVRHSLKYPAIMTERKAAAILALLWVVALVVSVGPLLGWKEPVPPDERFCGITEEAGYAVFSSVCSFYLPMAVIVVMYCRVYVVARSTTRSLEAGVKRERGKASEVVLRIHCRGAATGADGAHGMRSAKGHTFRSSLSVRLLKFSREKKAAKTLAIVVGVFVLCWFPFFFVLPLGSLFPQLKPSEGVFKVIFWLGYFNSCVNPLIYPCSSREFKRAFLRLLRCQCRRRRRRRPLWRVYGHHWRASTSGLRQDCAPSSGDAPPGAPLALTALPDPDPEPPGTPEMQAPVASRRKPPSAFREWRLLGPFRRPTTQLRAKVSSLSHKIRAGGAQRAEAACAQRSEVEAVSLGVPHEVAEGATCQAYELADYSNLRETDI
Description: Antagonist activity at human full-length N-terminal SNAP-tagged alpha1D adrenoceptor expressed in HEK293 cells assessed as inhibition of agonist-induced calcium mobilization preincubated for 10 mins followed by agonist addition by fluo-4 AM dye-based assay

In data set [14] the target is T3, Alpha-1A adrenergic receptor (Rattus norvegicus, UniProt P43140).
T3 sequence (P43140 whole entry): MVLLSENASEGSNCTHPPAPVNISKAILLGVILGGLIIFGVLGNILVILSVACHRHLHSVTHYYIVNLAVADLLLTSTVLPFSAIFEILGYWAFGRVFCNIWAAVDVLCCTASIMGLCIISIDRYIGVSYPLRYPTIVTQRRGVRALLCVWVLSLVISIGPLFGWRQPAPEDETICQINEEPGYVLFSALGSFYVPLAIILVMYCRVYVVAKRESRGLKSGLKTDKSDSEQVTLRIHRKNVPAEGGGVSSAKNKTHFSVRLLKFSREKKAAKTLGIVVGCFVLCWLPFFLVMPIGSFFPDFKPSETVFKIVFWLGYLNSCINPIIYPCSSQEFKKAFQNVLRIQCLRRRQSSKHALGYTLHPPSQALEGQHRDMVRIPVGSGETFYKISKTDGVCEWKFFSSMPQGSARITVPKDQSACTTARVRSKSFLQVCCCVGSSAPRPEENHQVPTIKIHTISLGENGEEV
The experiment in a line: Antagonist activity at alpha1A adrenoceptor in Sprague-Dawley rat urethra assessed as inhibition of norepinephrine-induced smooth muscle contraction after 20 mins.

In data set [15] the target is T4, Alpha-1B adrenergic receptor (Rattus norvegicus, UniProt P15823).
T4 sequence (P15823 whole entry): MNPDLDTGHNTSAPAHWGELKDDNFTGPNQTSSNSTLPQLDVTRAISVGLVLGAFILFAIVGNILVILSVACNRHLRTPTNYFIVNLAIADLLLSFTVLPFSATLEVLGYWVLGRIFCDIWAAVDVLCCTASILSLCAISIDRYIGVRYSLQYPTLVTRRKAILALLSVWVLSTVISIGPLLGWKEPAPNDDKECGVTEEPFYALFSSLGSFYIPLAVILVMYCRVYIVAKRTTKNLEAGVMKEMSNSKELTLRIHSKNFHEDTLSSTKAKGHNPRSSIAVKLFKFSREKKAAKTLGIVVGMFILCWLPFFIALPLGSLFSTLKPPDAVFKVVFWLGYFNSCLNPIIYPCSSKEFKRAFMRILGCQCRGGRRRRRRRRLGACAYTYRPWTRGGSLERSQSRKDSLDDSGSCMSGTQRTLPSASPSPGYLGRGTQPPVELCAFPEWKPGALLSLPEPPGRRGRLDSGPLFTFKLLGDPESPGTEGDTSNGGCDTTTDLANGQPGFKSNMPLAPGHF
The experiment in a line: Antagonist activity at alpha1B adrenoceptor in Sprague-Dawley rat aorta assessed as inhibition of norepinephrine-induced smooth muscle contraction after 20 mins.

Data set [16] is described as follows: Mean residence time in rat at 10 mg/kg, iv. The format is ADME, organism-based. As to conditions: in vivo.
Data set [17] deals with Mus musculus. Kind of data set: Acute toxicity in Kunming mouse assessed as effect on behavior at 500 mg/kg, po administered as single dose measured over 7 days. The format is organism-based. As to conditions: in vivo, 168 h.
Data set [18] is described as follows: Mean residence time in rat at 20 mg/kg, ig via oral gavage. Format: ADME, organism-based. The note with it: in vivo.

Chain of Voltage-gated inwardly rectifying potassium channel KCNH2 (Q12809 whole entry): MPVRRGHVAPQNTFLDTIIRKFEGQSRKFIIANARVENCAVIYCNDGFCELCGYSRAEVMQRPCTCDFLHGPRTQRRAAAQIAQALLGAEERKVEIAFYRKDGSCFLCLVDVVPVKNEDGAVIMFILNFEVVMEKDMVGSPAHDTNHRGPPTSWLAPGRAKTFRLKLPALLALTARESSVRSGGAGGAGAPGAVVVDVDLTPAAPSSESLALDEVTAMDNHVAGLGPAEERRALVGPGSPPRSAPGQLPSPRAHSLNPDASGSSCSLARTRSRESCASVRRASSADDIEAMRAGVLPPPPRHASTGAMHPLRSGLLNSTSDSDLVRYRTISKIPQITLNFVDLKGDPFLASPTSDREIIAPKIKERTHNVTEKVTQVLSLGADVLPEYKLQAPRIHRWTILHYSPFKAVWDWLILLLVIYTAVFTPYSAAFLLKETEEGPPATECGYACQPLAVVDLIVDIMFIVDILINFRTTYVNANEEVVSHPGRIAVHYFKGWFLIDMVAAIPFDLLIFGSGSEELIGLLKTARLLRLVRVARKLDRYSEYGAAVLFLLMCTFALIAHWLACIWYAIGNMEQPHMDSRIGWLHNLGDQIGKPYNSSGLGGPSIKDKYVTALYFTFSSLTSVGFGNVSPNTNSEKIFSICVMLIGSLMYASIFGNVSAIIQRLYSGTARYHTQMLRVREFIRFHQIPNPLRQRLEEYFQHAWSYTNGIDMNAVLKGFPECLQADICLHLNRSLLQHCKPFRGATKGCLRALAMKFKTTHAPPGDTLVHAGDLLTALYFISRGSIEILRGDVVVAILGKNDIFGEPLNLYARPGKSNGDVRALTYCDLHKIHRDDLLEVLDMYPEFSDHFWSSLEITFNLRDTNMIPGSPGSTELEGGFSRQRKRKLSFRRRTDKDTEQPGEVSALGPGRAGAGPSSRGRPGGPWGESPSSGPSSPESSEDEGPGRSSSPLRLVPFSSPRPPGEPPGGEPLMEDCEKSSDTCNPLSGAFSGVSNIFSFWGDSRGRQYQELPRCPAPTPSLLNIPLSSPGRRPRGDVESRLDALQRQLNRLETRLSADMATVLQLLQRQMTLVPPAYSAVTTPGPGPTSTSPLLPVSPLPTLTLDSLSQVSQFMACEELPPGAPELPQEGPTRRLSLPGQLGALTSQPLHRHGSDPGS

With `COc1ccc2[nH]c3c(c2c1)C[C@H]1c2cc4c(cc2CCN1C3)OCO4`, the minimal effective dose with Rattus norvegicus is 3 mg/kg. Also, the IC50 (as a rule, the concentration at which inhibition is half-maximal) in [1] is greater than 10000 nM; in data set [7] it was 13200 nM; in data set [13], 251 nM; in [14], 0.5 nM; in data set [15], greater than 1000 nM. The bioavailability – broadly, the share of a dose that reaches the circulation, judged against a reference dose that is usually intravenous – in data set [2] is 60.9%. The Activity entry with Mus musculus [3], in the data set with Mus musculus [12] and with Mus musculus [17] was “Non-Toxic” in each case. The Tmax (in general, the time from dosing to the highest level) in data set [4] stood at 0.25 h. Moreover, the Cmax (in general, the maximum level reached in the sampled fluid or tissue) in data set [5] came to 855 ng/mL. Moreover, the figures for the “Ratio IC50” value (in data set [6]; in the data set listed under Homo sapiens [8]; in the data set filed under Homo sapiens [10]) were greater than 2083, greater than 781 and 19.6, respectively. In [9], the half-life (commonly the time in which the quantity being followed falls by half) is 0.98 h. Further, the AUC(0-t) – broadly, exposure summed from dosing to a finite time, without extrapolation to infinity – in [11] is 2270 ng·h/mL. In addition, the results for the MRT in data set [16] and in [18] were 1.79 h and 2.52 h, respectively.
